The values that follow come from patent US20210060125A1, “METHOD AND USE OF PnPP-19 FOR PREVENTING AND TREATING EYE DISEASES” (priority 2019, published 2021).

Data set [1] has as its system HA-induced glaucoma in rats. The conditions noted are these: cited from earlier work.
Data set [2] has as its system ocular hypertensive rabbits. As to conditions: hypertonic saline into the vitreous body; cited from earlier work.
The subject of a further data set is Human glaucoma. As to conditions: cited from earlier work.
For a further data set, the system named is Glaucomatous dogs. The conditions noted are these: cited from earlier work.
The test system of data set [3] is Hen's egg chorioallantoic membranes (HET-CAM). In words: HET-CAM ocular irritation model. Also noted: key to Irritability classification: NI = Non- irritant; SI = severely irritant. The conditions noted are these: for OII ± SD (mean cumulative score) / OII ± SD: mean ± S.D., n = 6. On the procedure:
Hen's egg—chorioallantoic membranes (HET-CAM) were used to assess anti-irritant properties of different concentrations of PnPP-19. PnPP-19 was dissolved in 300 μL of saline in order to achieve the concentration of 40 μg, 80 μg, 160 μg, 320 μg, in 20 μL (the volume of one eye drop). Sodium chloride 0.9% (NaCl) was used as negative control and sodium hydroxide 0.1 M (NaOH) as a positive control.
The reactions were classified according to a semi-quantitatively analysis, on a scale from 0 (no reaction) to 3 (strong reaction). The ocular irritation index (OII) was then calculated by the following expression: […]
where h is time (in seconds) from the beginning of bleeding; l lysis, and c coagulation. The following classification was used: OII≤0.9: […]; 0.9<OII≤4.9: moderately irritant; 4.9<OII≤8.9: irritant; 8.9<OII≤21: severely irritant.

The next data set concerns healthy subjects. In words: Phase 1 clinical trial, safety, tolerability and IOP. Format: in vivo, human. The procedure: Twelve healthy subjects, 6 males and 6 females, were selected to evaluate the safety and tolerability of PnPP-19. PnPP-19 were applied as one eye drop per day (with 250 μg of peptide in 50 μL saline (0.5%)) for 7 days, in one eye, while vehicle (the formulation without the peptide) was applied in the contralateral eye. The eye were randomized in a double-blind way to each intervention.
The safety was analyzed by an ophthalmologist thought a slit lamp in conjunction with a biomiscrscope to examine the anterior and posterior segment of the eye. This procedure was performed in both eyes, in each subject, in the days 1, 2, 3, 4 and 7 of the treatment.
The tolerability was analyzed thought a daily tolerability questionnaire. […] One patient reported mild headache, that last minutes.
IOP was measured with a non-contact tonometer before and 1,2,4 6 and 24 hours after the instillations of PnPP-19 or vehicle.

Data set [4] concerns male Wistar rats with retinal ischemia. The data set can be described thus: Ischemic retina model, study 2 (pre-treatment or prevention). The data set is classed as in vivo, rat. The conditions noted are these: pre-treatment; 3 cd.s.m−2, scotopic; n=6. The procedure:
The potential neuroprotective effect of PnPP-19 in the retina was investigated with an animal model of ischemic injury. For this purpose, male Wistar rats were treated with PnPP-19 either before or after induction of ischemia (80 μg in 20 μl (one eye drop) once a day administration for seven days).
Male Wistar rats (180-200 g) were anesthetized intraperitoneally with ketamine hydrochloride 90 mg/kg and xylazine hydrochloride 10.0 mg/kg and the retinas were made ischemic according to the protocols of Hughes (HUGHES, W. F. Quantitation of ischemic damage in the rat retina. Exp Eye Res, 53(5): 573-82, 1991), and of Louzada-Junior et al. (Louzada-Junior, P., Dias, J. J., Santos, W. F., Lachat, J. J., Bradford, H. F., Coutinho-Netto, J. Glutamate Release in Experimental Ischaemia of the Retina: An Approach Using Microdialysis. J Neurochem, 59(1):358-63, 1992). IOP was elevated by cannulating the eye anterior chamber, with a sterile 27-gauge needle attached to a manometer/pump connected to an air reservoir (HUGHES, W. F. Quantitation of ischemic damage in the rat retina. Exp Eye Res, 53(5): 573-82, 1991) elevating the IOP to 155 mmHg for 40 min evoking ischemia (indicated by whitening of the eye fundus as blood flow is interrupted). […]
We measured different layer thicknesses to quantify the degree of cell loss to measure the ischemic damage in the rat retina. […]

Data set [5] deals with glaucomatous male Wistar rats. Format: in vivo, rat. The conditions noted are these: 72 hours after PnPP-19 instillation. On the procedure:
The effectiveness of the PnPP-19 was first evaluated by measuring the changes in IOP of glaucomatous male Wistar rats (180-220 g, 7 to 10 weeks old, n=6). Glaucoma was induced in the right eye by the injection of 30 μL hyaluronic acid (HA) (10 mg/mL) into the anterior chamber through the clear cornea once per week for 3 weeks on the same calendar day and at the same time. Evaluation of the IOP was performed using a TonoPen (Tono-PenVet, Reichert). To perform the measurements, unsedated animals were topically anesthetized by the instillation of 0.5% proxymetacaine hydrochloride. Three IOP readings (with SE less than 5%) were taken for each eye. The average of these three readings was considered the corresponding value of the IOP. Electroretinogram (ERG) was recorded before and after the glaucoma induction. Eyes were enucleated and corneas and retinas were prepared for histology. The groups of treatment were defined as Healthy or non-glaucomatous—left eye, where HA was not applied; Glaucomatous, Non-treated—right eye, where HA was applied, treated with control (vehicle, saline); […]
The effects of PnPP-19 on rat's vision at the end of the HA glaucomatous model was analyzed by ERG to evaluate if the peptide impacts the visual acuity. […]

A further data set has as its system normotensive Wistar rats. In words: In vivo single-dose acute toxicology, topical eye drops. Also noted: species or system rat. The conditions noted are these: single topical dose 40, 80, 160 μg in 20 μL. The procedure:
Single-dose topical application of PnPP-19 was dissolved in 300 of saline at the dose of 40, 80 and 160 μg, in 20 μL of saline, in the form of eye drops, was evaluated in normotensive Wistar rats (150-200 g), n=4 rats per dose group. Fundoscopy and electroretinography were performed at days 0, 1, 7 and 15 after PnPP-19 administration. At day 15, eye tissue was collected to histopathological analysis. Day 0 was considered as a control time point for any dose to evaluate for observed differences.

For data set [6], the system named is male normotensive Wistar rat eye. The data set can be described thus: Eye permeation and diffusion of fluorescence-labeled PnPP-19. The data set is classed as in vivo. As to conditions: 80 μg/20 μl eye drop in saline; 3 hours. On the procedure: Fluorescence-labeled PnPP-19 (FITC) was applied topically in form of eye drops (peptide dissolved in saline) in a dose of 80 μg/20 μl in the male normotensive Wistar rat eye. Vehicle (saline) was applied in the contralateral eye to be used as control. After 3 hours the eyes were enucleated and prepared for histological analysis using fluorescence microscope APOTOME.2 ZEISS.

[7] abbreviates: daily tolerability questionnaire, n=12.
[8] abbreviates: all concentrations tested (40-320 μg in 20 μL).

“Also recorded” adds a separate entry of the source. A value given as a limit tells only on which side of the number the result lay.

For the molecule `CC(C)OC(=O)CCC/C=C\C[C@@H]1[C@@H](CC[C@@H](O)CCc2ccccc2)[C@H](O)C[C@@H]1O` [Latanoprost], the “Average IOP reduction (%)” value in data set [1] is reported as 28.1%; in the data set with Human glaucoma it was 13.1%. Further, in [2], the “effect on ocular hypertension” value is given as “not”.
For the molecule `O=C(CCC/C=C\C[C@@H]1[C@@H](CC[C@@H](O)CCc2ccccc2)[C@H](O)C[C@@H]1O)OCCCCO[N+](=O)[O-]` [Latanoprostene Bunod], the “effect on ocular hypertension” value in [2] is “significantly blunted”. For the same molecule, the “reduction in IOP” value in the data set with Glaucomatous dogs is recorded as 44%. Further, the “Average IOP reduction (%)” value in the data set with Human glaucoma was 31%.
Regarding `CC(C)(C)NC[C@H](O)COc1nsnc1N1CCOCC1` [Timolol], the “Average IOP reduction (%)” value in [1] is 25.3%; in the data set on Human glaucoma, 18%.
`[Na+].[OH-]` [0.1M NaOH, sodium hydroxide, reference compound]: in data set [3] (0.1 M, positive control), the Irritability classification result is “SI”, the “irritancy ranking in words” value is on record as “severely irritant (8.9<OII≤21: severely irritant)” and the “OII ± SD (mean cumulative score)” value is 21.11 ± 0.32. Further, the “OII ± SD (mean cumulative score)” value in [3] (0.1 M, positive control, listed as 0.1 M NaOH) came out at 21.11±0.32.
As for “Ac-GERRQYFWIAWYKLANSKK-NH2 (N-terminus and C-terminus assumed) [PnPP-19, Gly Glu Arg Arg Gln Tyr Phe Trp Ile Ala Trp Tyr Lys Leu Ala Asn Ser Lys Lys]”, in the data set with healthy subjects (250 μg in 50 μL saline (0.5%), one drop per day for 7 days, n=12), the “Safety, slit lamp examination of anterior and posterior segment” value is listed as “no safety finding”. Besides, the “Blood pressure, heart rate, weight, physical examination, electrocardiogram” value in the data set on healthy subjects (250 μg in 50 μL, one drop per day for 7 days, n=12) was “no difference in blood pressure, heart rate, weight, physical examination and electrocardiogram results”. Besides, the “Relation of reported adverse events to treatment (investigator)” value in the data set on healthy subjects (daily tolerability questionnaire, four events reported) is on record as “none of those adverse events were related to PnPP-19”. For the same molecule, in the data set with healthy subjects (setting [7]), the “Eye burning after instillation” value is on record as “in one patient” and the “Puritis in the eye after instillation” value is given as “one patient”. The ERG b-amp/a-amp ratio entry in [4] is recorded as “an increasing tendency in b/a ratio; also recorded: prevents vision loss”. For the same molecule, in [3] (40 μg in 20 μL saline), the Irritability classification entry is listed as “NI” and the “OII ± SD” value was no more than 0.9 ± 0.0. Further, in [3] (80 μg in 20 μL saline), the Irritability classification result was “NI” and the “OII ± SD” value is no more than 0.9 ± 0.0. Further, in data set [3] (160 μg in 20 μL saline), the Irritability classification result is recorded as “NI” and the “OII ± SD” value is recorded as no more than 0.9 ± 0.0. In data set [3] (320 μg in 20 μL saline), the Irritability classification entry is given as “NI” and the “OII ± SD” value is on record as no more than 0.9 ± 0.0. For the same molecule, in [3] (setting [8]), the “irritancy ranking in words” value is reported as “non-irritant” and the “mean cumulative scores (OII)” value is no more than 0.9. The “signs of vascular response” value in [3] (all concentrations tested, observed up to 5 min) was “did not show any signs of vascular response”. Besides, the “Dark-adapted ERG vs glaucomatous non-treated group” value in [5] is reported as “no difference”. Besides, the “Histological morphology of cornea and retina” value in the data set with normotensive Wistar rats (day 15, n=4) was “keeps the same morphology; also recorded: does not alter the retinal morphology; also recorded: does not alter the cornea morphology”. Further, in the data set on normotensive Wistar rats (days 1, 7, 15, n=4 per dose), the “Fundoscopy vs day 0” value is reported as “No difference was observed; also recorded: does not affect retinal vessels”. Besides, the “Electroretinography a and b wave vs day 0” value in the data set on normotensive Wistar rats (up to day 15) was “absence of retinal nerve damage”. In data set [6], the “Fluorescence in cornea, vitreous body and retina vs vehicle” value is “permeates the cornea and reaches the retina”.
In the case of Latanoprost, the “reduction in IOP” value in the data set on Glaucomatous dogs was 27%.
